Literature values in patent publication US11224576B2, “Process for the production of an abuse-proofed dosage form” (GRÜNENTHAL GMBH, priority 2004, dated 2022).

**Q.** For `COc1cccc(C2(O)CCCCC2CN(C)C)c1` (stereo not shown) [Tramadol, tramadol], which water solubility is on record?
**A.** excellent
